Reference: patent US9745310B2 (SK BIOPHARMACEUTICALS CO., LTD., priority 2015, dated 2017)

Target: human mGluR5 receptor (Homo sapiens (Human), UniProt P41594)
Assay: Calcium influx assay based on fluorescence (mGluR5 PAM activity)
Details: human mGluR5 receptor-overexpressed HEK293 cell line; L-glutamate EC20; Fluo-4, FLIPR
Procedure: Efficacy as a positive allosteric modulator (PAM) of mGluR5 of the compounds of the Examples was tested as follows:
Calcium Influx Assay Based on Fluorescence
Ca^2+ (calcium) influx assay is an experiment for measuring the activity of a positive allosteric modulator of mGluR5 receptor in which human mGluR5 receptor-overexpressed HEK293 cell line is used. The day before the experiment, cells were prepared in a cell culture medium (DMEM, 5% FBS) with the density of 80,000/well, and 100 μl of cells were dispensed into each well of a poly-D-lysine-coated 96-well plate. Cells were incubated in a 5% CO2, 37° C. incubator. The next day, the cell culture medium was removed from the plate, and 100 μl of 1× Fluo-4 calcium indicator diluted with a buffer (1× Hank's balanced salt solution, 20 mM HEPES, 2.5 mM probenecid) were added to each well and incubated at 37° C. for 1 hour. The compound stock solutions were prepared in 100% DMSO, and the compounds were serially diluted with a ¼ dilution to 6 or 7 concentrations (final concentration was 10 μM to 10 nM). The diluted compound solutions were added to the plate with 0.1 to 0.2% of final DMSO concentration. 1 hour after the addition of Fluo-4 calcium indicator, L-glutamate (EC20 concentration) and the test compound solutions were added to the plate, and Ca^2+ reaction was then measured by FLIPR at room temperature. The activity of the compounds was standardized on the basis of the results of maximum value-minimum value of fluorescent reaction, and the activity value was calculated on the basis that no activity on glutamate EC20 is 0% and the reaction to glutamate maximum value is 100%.

human mGluR5 receptor, sequence (P41594 21-1212): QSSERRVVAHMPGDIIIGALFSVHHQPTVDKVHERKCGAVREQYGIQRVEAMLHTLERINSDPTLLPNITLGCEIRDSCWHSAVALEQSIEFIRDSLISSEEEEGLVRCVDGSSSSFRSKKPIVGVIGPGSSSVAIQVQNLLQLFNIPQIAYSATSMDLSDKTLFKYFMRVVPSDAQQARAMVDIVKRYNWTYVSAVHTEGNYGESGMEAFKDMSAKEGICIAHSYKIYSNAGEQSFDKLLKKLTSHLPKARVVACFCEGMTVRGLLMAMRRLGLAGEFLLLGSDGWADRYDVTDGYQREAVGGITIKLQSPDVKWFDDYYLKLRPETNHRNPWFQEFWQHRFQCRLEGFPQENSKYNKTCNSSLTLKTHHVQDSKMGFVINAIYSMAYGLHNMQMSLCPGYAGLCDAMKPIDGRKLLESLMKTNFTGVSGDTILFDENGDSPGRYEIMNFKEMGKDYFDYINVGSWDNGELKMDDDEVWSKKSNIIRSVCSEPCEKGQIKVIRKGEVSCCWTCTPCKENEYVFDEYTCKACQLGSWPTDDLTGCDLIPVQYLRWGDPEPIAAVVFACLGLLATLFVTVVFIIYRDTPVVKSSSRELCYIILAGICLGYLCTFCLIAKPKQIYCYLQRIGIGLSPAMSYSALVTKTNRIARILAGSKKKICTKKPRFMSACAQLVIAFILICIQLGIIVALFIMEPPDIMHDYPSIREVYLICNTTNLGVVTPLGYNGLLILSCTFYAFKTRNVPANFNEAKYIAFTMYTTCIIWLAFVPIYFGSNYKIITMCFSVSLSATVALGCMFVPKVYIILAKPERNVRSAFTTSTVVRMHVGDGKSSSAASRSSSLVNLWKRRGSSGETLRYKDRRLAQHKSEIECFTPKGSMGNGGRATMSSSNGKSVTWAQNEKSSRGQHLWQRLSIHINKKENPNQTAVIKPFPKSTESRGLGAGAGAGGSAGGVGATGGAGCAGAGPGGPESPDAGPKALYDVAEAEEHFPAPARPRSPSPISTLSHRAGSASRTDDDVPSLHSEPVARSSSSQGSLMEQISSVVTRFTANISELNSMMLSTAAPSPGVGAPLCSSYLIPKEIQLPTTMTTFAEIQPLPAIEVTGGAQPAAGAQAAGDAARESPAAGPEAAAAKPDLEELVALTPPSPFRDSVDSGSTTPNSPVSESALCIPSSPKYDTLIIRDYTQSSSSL

| Compound | EC50 [nM] |
| --- | --- |
| Nc1cc(F)ccc1-c1cnc2nc(COc3ccnc(F)c3)cn2c1 [Example 176, 5-fluoro-2-[2-[(2-fluoro-4-pyridyl)oxymethyl]imidazo[1,2-a]pyrimidin-6-yl]aniline] | 100 to 500 |
| NC(=O)OCc1cc(F)ccc1-c1cnc2nc(COc3ccccc3)cn2c1 [Example 194, [5-fluoro-2-[2-(phenoxymethyl)imidazo[1,2-a]pyrimidin-6-yl]phenyl]methyl carbamate] | 100 to 500 |
| Fc1ccc(OCc2cn3cc(-c4ccnc(F)c4)cnc3n2)cc1 [Example 62, 2-[(4-fluorophenoxy)methyl]-6-(2-fluoro-4-pyridyl)imidazo[1,2-a]pyrimidine] | 500 to 1000 |
| c1ccc(OCc2cn3cc(-c4ccccc4)cnc3n2)cc1 [Example 2, 2-phenoxymethyl-6-phenylimidazo[1,2-a]pyrimidine] | 100 to 500 |
| Fc1ccc(OCc2cn3cc(-c4ccncc4Cl)cnc3n2)cc1 [Example 49, 6-(3-chloropyridin-4-yl)-2-(4-fluorophenoxymethyl)imidazo[1,2-a]pyrimidine] | 500 to 1000 |
| Cc1ccccc1-c1cnc2nc(COc3ccnc(F)c3)cn2n1 [Example 185, 2-(2-methylphenyl)-6-((2-fluoropyridin-4-yloxy)methyl)imidazo[1,2-b][1,2,4]triazine] | 100 to 500 |
| COc1ccccc1-c1cnc2nc(COc3ccccc3)cn2c1 [Example 4, 6-(2-methoxyphenyl)-2-phenoxymethylimidazo[1,2-a]pyrimidine] | 100 to 500 |
| Oc1cccc(-c2cnc3nc(COc4ccccc4)cn3c2)c1 [Example 17, 6-(3-hydroxyphenyl)-2-phenoxymethylimidazo[1,2-a]pyrimidine] | 500 to 1000 |
| Fc1ccc(OCc2cn3cc(-c4ccc(F)cc4C(F)(F)F)cnc3n2)nc1 [Example 119, 2-[(5-fluoro-2-pyridyl)oxymethyl]-6-[4-fluoro-2-(trifluoromethyl)phenyl]imidazo[1,2-a]pyrimidine] | 100 to 500 |
| Fc1ccc(-c2cnc3nc(COc4ccccc4)cn3c2)cc1 [Example 8, 6-(4-fluorophenyl)-2-phenoxymethylimidazo[1,2-a]pyrimidine] | 100 to 500 |

Next, values leading:

| EC50 [nM] | Compound |
| --- | --- |
| 500 to 1000 | Fc1ccc(-c2cnc3nc(COc4ccc(F)nc4)cn3c2)c(F)c1 [Example 157, 6-(2,4-difluorophenyl)-2-(6-fluoropyridin-3-yloxymethyl)imidazo[1,2-a]pyrimidine] |
| 100 to 500 | COc1cc(F)ccc1-c1cnc2nc(COc3ccccc3)cn2c1 [Example 20, 6-(2-methoxy-4-fluorophenyl)-2-phenoxymethylimidazo[1,2-a]pyrimidine] |
| 500 to 1000 | Cc1ccc(F)cc1-c1cnc2nc(COc3ccccn3)cn2c1 [Example 108, 6-(5-fluoro-2-methylphenyl)-2-(pyridin-2-yloxymethyl)imidazo[1,2-a]pyrimidine] |
| 100 to 500 | Cc1ccc(-c2cnc3nc(COc4ccccn4)cn3c2)c(F)c1 [Example 117, 6-(2-fluoro-4-methyl-phenyl)-2-(2-pyridyloxymethyl)imidazo[1,2-a]pyrimidine] |
| 500 to 1000 | Fc1cccc(-c2cnc3nc(COc4ccccn4)cn3c2)c1F [Example 107, 6-(2,3-difluorophenyl)-2-(pyridin-2-yloxymethyl)imidazo[1,2-a]pyrimidine] |
| 100 to 500 | Fc1ccc(-c2cnc3nc(COc4ccccn4)cn3c2)c(F)c1 [Example 105, 6-(2,4-difluorophenyl)-2-(pyridin-2-yloxymethyl)imidazo[1,2-a]pyrimidine] |
| 100 to 500 | COc1c(F)cccc1-c1cnc2nc(COc3cc(F)ccn3)cn2c1 [Example 121, 6-(3-fluoro-2-methoxy-phenyl)-2-[(4-fluoro-2-pyridyl)oxymethyl)imidazo[1,2-a]pyrimidine] |
| 500 to 1000 | COc1cc(F)ccc1-c1cnc2nc(COc3cccnc3)cn2c1 [Example 147, 6-(4-fluoro-2-methoxyphenyl)-2-(pyridin-3-yloxymethyl)imidazo[1,2-a]pyrimidine] |
